Assay in all cases: inhibition of tumour cell growth, NCI panel, 48 h
Experiment [1] has as its system ACHN.
Experiment [2] relates to HCT-116.
Experiment [3] deals with HL-60.
The subject of experiment [4] is HT-29.
Experiment [5] concerns KM12.
Experiment [6] relates to LOX IMVI.
Experiment [7] has as its system MOLT-4.
The subject of experiment [8] is Malme-3M.
Experiment [9] deals with NCI-H460.
The test system of experiment [10] is NCI-H522.
Experiment [11] concerns SK-MEL-5.
The test system of experiment [12] is SK-OV-3.
Experiment [13] deals with UACC-257.
In experiment [14] the test system is UO-31.
In experiment [15] the test system is RXF 393.

The structures appear in SMILES notation.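 Briefly, cells in 96-well plates were exposed to five compound concentrations for 48 h, and endpoints were estimated by linear interpolation. The concentration for 50% growth inhibition is given as GI50.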 The source made the active and inactive calls. No stated cut-off is given here; in the data, active = GI50 up to about 1.1 µM and inactive = higher. Some results are limits rather than exact numbers.

As to `Nc1ccc(C(=O)NN2C(=O)C(Cl)C2c2ccccc2O)cc1` (stereo not drawn), the GI50 in experiment [1] was 39.2 µM (inactive); in experiment [2], 60.5 µM (inactive); in experiment [3], 1.15 µM (inactive); in experiment [4], > 100 µM (inactive); in experiment [5], 82.6 µM (inactive); in [6], 18.8 µM (inactive). For the same compound, the GI50 in experiment [7] is 22.5 µM (inactive); in [8], > 100 µM (inactive); in experiment [9] it was 21.4 µM (inactive); in [10], 62.2 µM (inactive); in experiment [11] it was 47.4 µM (inactive); in experiment [12], 71.6 µM (inactive). For the same compound, the GI50 in experiment [13] was > 100 µM (inactive); in experiment [14], 21.9 µM (inactive).
As for `O=S(=O)(O)c1ccc(-c2c3nc(c(-c4ccc(S(=O)(=O)O)cc4)c4ccc([nH]4)c(-c4ccc(S(=O)(=O)O)cc4)c4nc(c(-c5ccc(S(=O)(=O)O)cc5)c5ccc2[nH]5)C=C4)C=C3)cc1`, the GI50 in experiment [1] is 86.3 µM (inactive); in experiment [2], > 100 µM (inactive); in experiment [4], > 100 µM (inactive); in experiment [5], > 100 µM (inactive); in [6] it was > 100 µM (inactive); in experiment [7], > 100 µM (inactive). Besides, the GI50 is > 100 µM (inactive) in [8]; > 100 µM (inactive) in [9]; 26.5 µM (inactive) in experiment [10]; 19.9 µM (inactive) in [15]; > 100 µM (inactive) in experiment [11]; > 100 µM (inactive) in experiment [12]. For the same compound, the figures for the GI50 in [13] and in experiment [14] were > 100 µM (inactive) and 19.5 µM (inactive), respectively.
For `C/C=C/C=N/N(c1nnc(-c2ccccc2)c(-c2ccccc2)n1)S(=O)(=O)c1ccc(C)cc1`, the GI50 is 11.8 µM (inactive) in [1]; 8.09 µM (inactive) in experiment [2]; 2.33 µM (inactive) in experiment [3]; 11.7 µM (inactive) in experiment [4]; 9.06 µM (inactive) in experiment [5]; 3.6 µM (inactive) in experiment [6]. For the same compound, the GI50 in [7] is 3.18 µM (inactive); in experiment [8], 10.4 µM (inactive); in [9], 11.1 µM (inactive); in experiment [10] it was 4.75 µM (inactive); in [11] it was 8.22 µM (inactive); in experiment [12] it was 18.7 µM (inactive). The GI50 in experiment [13] is 8.34 µM (inactive); in [14], 5.74 µM (inactive).
For the compound `C=C(C)C1CC[C@]2(C(=O)O)CCC3(C)[C@H](CCC4[C@@]5(C)CC[C@H](OC6OC(CO)C(O)C6OC6OC(C)C(O)C(O)C6O)[C@@](C)(CO)C5CC[C@]43C)C12` (stereo partly drawn), the GI50 in experiment [1], in experiment [2], in experiment [3], in experiment [4], in experiment [5] and in experiment [6] was > 100 µM (inactive) each time. The GI50 in experiment [7] was > 100 µM (inactive); in experiment [9], > 100 µM (inactive); in [10], 88.1 µM (inactive); in experiment [15] it was > 100 µM (inactive); in experiment [11] it was > 100 µM (inactive); in experiment [14] it was 20.1 µM (inactive).
In the case of `COC(=O)/C(C#N)=C1\NN=NN1CCCN1CCOCC1`, the GI50 in experiment [1], in [2], in [4], in [5], in experiment [6] and in experiment [7] was > 100 µM (inactive) each time. The GI50 in experiment [8], in [9], in [10], in [15], in experiment [11] and in experiment [12] was > 100 µM (inactive) each time. The GI50 in experiment [13] and in experiment [14] was > 100 µM (inactive) in each case.
For the compound `COc1ccc2c(c1)CC1c3c(cc4c(c3-2)OCO4)CCN1C` (stereo not drawn), the GI50 in experiment [1] was 16.9 µM (inactive); in experiment [2], 19.5 µM (inactive); in experiment [4], 27.7 µM (inactive); in experiment [5], 30.9 µM (inactive); in experiment [7], 20 µM (inactive); in experiment [8], 28 µM (inactive). The GI50 was 24.3 µM (inactive) in [9]; 15.6 µM (inactive) in experiment [10]; 16.9 µM (inactive) in experiment [11]; 21.3 µM (inactive) in [12]; 24.1 µM (inactive) in experiment [13]; 14 µM (inactive) in experiment [14].
Regarding `CC(C)=C1CCC(CN(C)C)C1=O` (stereo not drawn), the GI50 is 17.7 µM (inactive) in experiment [1]; 12.9 µM (inactive) in experiment [2]; 3.61 µM (inactive) in experiment [3]; 20.6 µM (inactive) in experiment [4]; 29.7 µM (inactive) in [5]; 12.1 µM (inactive) in experiment [7]. In addition, the GI50 in experiment [8] is 16.3 µM (inactive); in experiment [9] it was > 100 µM (inactive); in experiment [10] it was 0.196 µM (active); in experiment [15] it was 18.6 µM (inactive); in experiment [11], 15.6 µM (inactive); in experiment [13] it was 17.5 µM (inactive). Further, the GI50 in experiment [14] is > 100 µM (inactive).
Consider `CCCCC1CC(c2cccc([N+](=O)[O-])c2)=NO1` (stereo not drawn), for which the GI50 in [1] was > 100 µM (inactive); in [2], > 100 µM (inactive); in experiment [3], 30.4 µM (inactive); in experiment [4] it was 28.6 µM (inactive); in experiment [5], > 100 µM (inactive); in experiment [7], 36.4 µM (inactive). The GI50 in experiment [8] was > 100 µM (inactive); in experiment [9], 75.5 µM (inactive); in experiment [10], 29.5 µM (inactive); in experiment [11], 43.1 µM (inactive); in experiment [12], > 100 µM (inactive); in experiment [13], 48.3 µM (inactive). Moreover, the GI50 in experiment [14] is 50.9 µM (inactive).
Take `Cn1c2c(c3ccccc31)CCN(CCCCN1CCN(c3cccc(Cl)c3)CC1)C2=O`: the GI50 was 14.9 µM (inactive) in experiment [1]; 6.65 µM (inactive) in experiment [2]; 3.67 µM (inactive) in experiment [3]; 2.79 µM (inactive) in experiment [4]; 7.62 µM (inactive) in experiment [7]; > 10 µM (inactive) in experiment [8]. Moreover, the GI50 is 13.4 µM (inactive) in experiment [9]; 12.3 µM (inactive) in experiment [10]; 7.94 µM (inactive) in experiment [15]; 10.1 µM (inactive) in experiment [11]; 16.3 µM (inactive) in [12]; 7.03 µM (inactive) in experiment [13]. For the same compound, the GI50 in [14] was 6.21 µM (inactive).
For the compound `C(/C=C/N1CCCC1)=C\c1nc(N2CCCC2)c2ccccc2n1`, the GI50 in experiment [1] is 16.9 µM (inactive); in experiment [2], 19.7 µM (inactive); in experiment [3] it was 23.4 µM (inactive); in [4] it was 20.7 µM (inactive); in experiment [5], 17.1 µM (inactive); in experiment [6], 17.5 µM (inactive). Moreover, the GI50 is 17.3 µM (inactive) in [7]; 18.3 µM (inactive) in experiment [8]; 18.2 µM (inactive) in experiment [9]; 19.1 µM (inactive) in experiment [11]; 18.6 µM (inactive) in [12]; 33.2 µM (inactive) in [13]. Also, the GI50 in experiment [14] is 15.7 µM (inactive).
Regarding `COc1ccc(C2(Cl)C(Cl)(C(F)(F)F)C2(Cl)C(F)(F)F)cc1` (stereo not drawn), the GI50 was 16.8 µM (inactive) in experiment [1]; 11.7 µM (inactive) in experiment [2]; 8.38 µM (inactive) in [3]; 14.4 µM (inactive) in [4]; 14 µM (inactive) in experiment [5]; 6.68 µM (inactive) in experiment [6]. The GI50 was 2.62 µM (inactive) in experiment [7]; 15.9 µM (inactive) in experiment [9]; 12.1 µM (inactive) in [15]; 10.4 µM (inactive) in experiment [11]; 16.7 µM (inactive) in experiment [12]; 13.6 µM (inactive) in experiment [13]. Besides, the GI50 in [14] was 16 µM (inactive).
For the compound `CCOc1ccc(/N=N/c2ccc3oc(=O)c(C(=O)Nc4ccc(OC)cc4)cc3c2)cc1`, the GI50 in experiment [2] is 11.3 µM (inactive); in [3], 2.88 µM (inactive); in [4], 42.5 µM (inactive); in experiment [5], 30.8 µM (inactive); in experiment [6], 11.4 µM (inactive); in experiment [7], 4.07 µM (inactive). Moreover, the GI50 is 30.1 µM (inactive) in experiment [8]; 21.8 µM (inactive) in experiment [10]; 15 µM (inactive) in experiment [11]; 41.9 µM (inactive) in experiment [12]; 27.9 µM (inactive) in [13]; 5.57 µM (inactive) in experiment [14].
Take `CC(C)=CCCc1c(C)ccc2c1C(=O)C(=O)C(C(C)C)=C2`: the GI50 is 3.8 µM (inactive) in [1]; 3.57 µM (inactive) in experiment [2]; 1.03 µM (active) in experiment [3]; 7.11 µM (inactive) in experiment [4]; > 22 µM (inactive) in [5]; 1.36 µM (inactive) in [7]. Further, the GI50 is 3.73 µM (inactive) in experiment [8]; 10.7 µM (inactive) in experiment [9]; 3.4 µM (inactive) in experiment [10]; 3.68 µM (inactive) in experiment [15]; 20 µM (inactive) in experiment [11]; > 22 µM (inactive) in experiment [12]. Moreover, the GI50 in experiment [14] was 6.98 µM (inactive).
For the compound `O=C(O)CCC1CCc2cccc(OCC(=O)O)c2C1=O` (stereo not drawn), the GI50 in [1], in experiment [2], in experiment [3], in experiment [4], in experiment [6] and in experiment [7] was > 100 µM (inactive) in each case. Moreover, the GI50 in [9], in experiment [15], in [11], in [12] and in [13] was > 100 µM (inactive) each time.
On to `C/C(=N/O)c1sc(-c2nc(C)c(/C(C)=N\O)s2)nc1C`, for which the GI50 in [1], in experiment [2], in experiment [3], in experiment [4], in [6] and in experiment [7] was > 100 µM (inactive) each time. Besides, the GI50 in [8], in experiment [15], in [11], in [12], in experiment [13] and in experiment [14] was > 100 µM (inactive) throughout.

For the origin of these results see ChEMBL document CHEMBL1201862, “PubChem BioAssay data set” (2004).
